Publication PMC11672294, “The Antipsychotic Drug Aripiprazole Suppresses Colorectal Cancer by Targeting LAMP2a to Induce RNH1/miR‐99a/mTOR‐Mediated Autophagy and Apoptosis” (Advanced Science, 2024)
Where a name gives a salt, the structure may show the parent alone.

The molecules below were run on HT29. Details: 72 h, relative to DMSO, 10 µM, Relative cell viability (%).
How it was run: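 HT29 viability used WST-1 reduction (2 h, 37 °C, A450) after 72 h of treatment; screening compounds were tested singly at 10 µM, with dimethyl sulfoxide as the comparison.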
For `COc1ccc(C[C@@H]2c3cc(OC)c(OC)cc3CC[N@+]2(C)CCC(=O)OCCCCCOC(=O)CC[N@@+]2(C)CCc3cc(OC)c(OC)cc3[C@H]2Cc2ccc(OC)c(OC)c2)cc1OC` [Atracurium Besylate], the “Relative cell viability (%)” value was 91.95%.

Same assay, conditions: 72 h, relative to DMSO; 10 µM
`Clc1ccc(COC(Cn2ccnc2)c2ccc(Cl)cc2Cl)c(Cl)c1` (centres unmarked) [Miconazole Nitrate] was tested, and the “Relative cell viability (%)” value was 184.3%. In the case of `CNCCC(Oc1ccc(C(F)(F)F)cc1)c1ccccc1` (centres unmarked) [Fluoxetine HCl], the “Relative cell viability (%)” value is reported as 86.76%. In the case of `COCCOC(=O)C1=C(C)NC(C)=C(C(=O)OC/C=C/c2ccccc2)C1c1cccc([N+](=O)[O-])c1` (centres unmarked) [Cilnidipine], the “Relative cell viability (%)” value is reported as 69.63%. In the case of `CCCNC(=O)NS(=O)(=O)c1ccc(Cl)cc1` [Chlorpropamide], the “Relative cell viability (%)” value is reported as 79.39%. In the case of `C[C@@H]1O[C@@H](OC[C@H]2O[C@@H](Oc3c(-c4ccc(O)c(O)c4)oc4cc(O)cc(O)c4c3=O)[C@H](O)[C@@H](O)[C@@H]2O)[C@H](O)[C@H](O)[C@H]1O` [Rutin], the “Relative cell viability (%)” value is reported as 112%. `CCCCCCCN(CC)CCCC(O)c1ccc(NS(C)(=O)=O)cc1` (centres unmarked) [Ibutilide Fumarate] was tested, and the “Relative cell viability (%)” value was 112%. For `COc1cc2c(cc1OC)CC(=O)N(CCCN(C)C[C@H]1Cc3cc(OC)c(OC)cc31)CC2` [Ivabradine HCl], the “Relative cell viability (%)” value was 110.8%. In the case of `Fc1ccc(C(c2ccc(F)cc2)N2CCN(C/C=C/c3ccccc3)CC2)cc1` [Flunarizine 2HCl], the “Relative cell viability (%)” value is reported as 73.29%. For `NC1=NCC2c3ccccc3Cc3ccccc3N12` (centres unmarked) [Epinastine HCl], the “Relative cell viability (%)” value was 78.48%. In the case of `NC(CO)C(=O)NNCc1ccc(O)c(O)c1O` (centres unmarked) [Benserazide HCl], the “Relative cell viability (%)” value is reported as 108.4%. In the case of `CS(=O)(=O)Nc1ccc([N+](=O)[O-])cc1Oc1ccccc1` [Nimesulide], the “Relative cell viability (%)” value is reported as 191.7%. `CN1C(C(=O)Nc2ccccn2)=C(O)c2sc(Cl)cc2S1(=O)=O` [Lornoxicam] was tested, and the “Relative cell viability (%)” value was 228.6%. `CN(C)CCC=C1c2ccccc2C=Cc2ccccc21` [Cyclobenzaprine HCl] was tested, and the “Relative cell viability (%)” value was 39.39%. `CC[C@H](NC(=O)[C@H](C)NC)C(=O)N1C[C@@H](O)C[C@H]1Cc1c(-c2[nH]c3cc(F)ccc3c2C[C@@H]2C[C@H](O)CN2C(=O)[C@H](CC)NC(=O)[C@H](C)NC)[nH]c2cc(F)ccc12` [Birinapant] was tested, and the “Relative cell viability (%)” value was 132.9%. `Cn1c(=O)cc(N2CCC[C@@H](N)C2)n(Cc2cc(F)ccc2C#N)c1=O` [Trelagliptin] was tested, and the “Relative cell viability (%)” value was 63.68%. With `OCCOCCN1CCN(C2=Nc3ccccc3Sc3ccccc32)CC1` [Quetiapine Fumarate] the “Relative cell viability (%)” value was 47.46%. With `O=C1c2ccccc2C(=O)C1c1ccccc1` [Phenindione] the “Relative cell viability (%)” value was 136.8%. For `COCCOC(=O)C1=C(C)NC(C)=C(C(=O)OC(C)C)C1c1cccc([N+](=O)[O-])c1` (centres unmarked) [Nimodipine], the “Relative cell viability (%)” value was 53.81%. In the case of `CC(C(=O)O)c1ccc(C(=O)c2cccs2)cc1` (centres unmarked) [Suprofen], the “Relative cell viability (%)” value is reported as 93.22%. With `CC1(C)[C@H](C(=O)O)N2C(=O)C[C@H]2S1(=O)=O` [Sulbactam] the “Relative cell viability (%)” value was 199.5%. `COc1cc([C@H]2Oc3cc([C@H]4Oc5cc(O)cc(O)c5C(=O)[C@@H]4O)ccc3O[C@@H]2CO)ccc1O` [Silibinin] was tested, and the “Relative cell viability (%)” value was 119.6%. `COc1ccc2[nH]c([S+]([O-])Cc3ncc(C)c(OC)c3C)nc2c1` (centres unmarked) [Omeprazole] was tested, and the “Relative cell viability (%)” value was 88.32%. For `COc1cc([C@@H]2c3cc4c(cc3[C@@H](O[C@@H]3O[C@@H]5CO[C@@H](c6cccs6)O[C@H]5[C@H](O)[C@H]3O)[C@H]3COC(=O)[C@H]23)OCO4)cc(OC)c1O` [Teniposide], the “Relative cell viability (%)” value was 34.75%. In the case of `CCc1nc(N)nc(N)c1-c1ccc(Cl)cc1` [Pyrimethamine], the “Relative cell viability (%)” value is reported as 41.03%.

Same assay, conditions: ht29 cells, 72 h, 10 µM
`CCc1c(Cl)c(O)c(Cl)c(O)c1C(=O)O[C@H]1[C@H](O)[C@H](OC)[C@H](OC/C2=C\C=C\C[C@H](O)/C(C)=C/[C@H](CC)[C@@H](O[C@@H]3OC(C)(C)[C@@H](OC(=O)C(C)C)[C@H](O)[C@@H]3O)/C(C)=C/C(C)=C/C[C@@H]([C@@H](C)O)OC2=O)O[C@@H]1C` [Fidaxomicin] was tested, and the “Relative cell viability (%)” value was 94.85%.
